Assay results: PubChem BioAssay AID330 (DTP/NCI, 2004)
Values joined by “and” are separate entries in the source; they are usually repeats but may differ in a detail not shown here. Identical values can stand only once. Inconclusive results and toxic doses are left out. The calls were made as follows: active = survival T/C of 150% or more; inactive = T/C below 125% in these data.

System: P388 leukemia ip, CD2F1 mice, survival T/C
Experiment: NCI In Vivo Anticancer Drug Screen. Data for tumor model P388 Leukemia (intraperitoneal) in CD2F1 (CDF1) mice
Settings: endpoint: median survival time, higher = longer survival
How it was run: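 Mice carrying the transplanted tumor received test compound or vehicle. Survival was recorded in each group, and the value is the treated-group measurement divided by that of the vehicle-treated control group.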

[1] = dose: 50.0 mg/kg/injection, schedule: Q01DX005 (ip), vehicle: Klucel (hydroxypropylcellulose) (HPC)
[2] = dose: 100.0 mg/kg/injection, schedule: Q01DX005 (ip), vehicle: Klucel (hydroxypropylcellulose) (HPC)
[3] = dose: 200.0 mg/kg/injection, schedule: Q01DX005 (ip), vehicle: Klucel (hydroxypropylcellulose) (HPC)
[4] = dose: 50.0 mg/kg/injection, schedule: Q01DX009 (ip), vehicle: saline with Tween-80
[5] = dose: 100.0 mg/kg/injection, schedule: Q01DX009 (ip), vehicle: saline with Tween-80
[6] = dose: 200.0 mg/kg/injection, schedule: Q01DX009 (ip), vehicle: saline with Tween-80
[7] = dose: 50.0 mg/kg/injection, schedule: Q01DX009 (ip), vehicle: saline
[8] = dose: 100.0 mg/kg/injection, schedule: Q01DX009 (ip), vehicle: saline
[9] = dose: 200.0 mg/kg/injection, schedule: Q01DX009 (ip), vehicle: saline
[10] = dose: 50.0 mg/kg/injection, schedule: Q04DX003 (ip), vehicle: saline with Tween-80
[11] = dose: 100.0 mg/kg/injection, schedule: Q04DX003 (ip), vehicle: saline with Tween-80
[12] = dose: 200.0 mg/kg/injection, schedule: Q04DX003 (ip), vehicle: saline with Tween-80

Measured: T/C

CC(C)(C)C1=NN=C(C(C)(C)C)CSC1
inactive: dose: 60.0 mg/kg/injection, schedule: Q01DX005 (ip), vehicle: saline with Tween-80 108 % of control | dose: 120.0 mg/kg/injection, schedule: Q01DX005 (ip), vehicle: saline with Tween-80 103 % of control | dose: 240.0 mg/kg/injection, schedule: Q01DX005 (ip), vehicle: saline with Tween-80 104 % of control

OC1OCC2CC3c4cc5c(cc4CCN3CC21)OCO5 (stereo unspecified)
inactive: dose: 0.63 mg/kg/injection, schedule: Q01DX009 (ip), vehicle: distilled water + Tween-80 103 % of control | dose: 1.25 mg/kg/injection, schedule: Q01DX009 (ip), vehicle: distilled water + Tween-80 109 % of control | dose: 2.5 mg/kg/injection, schedule: Q01DX009 (ip), vehicle: distilled water + Tween-80 108 % of control | dose: 5.0 mg/kg/injection, schedule: Q01DX009 (ip), vehicle: distilled water + Tween-80 100 % of control | dose: 10.0 mg/kg/injection, schedule: Q01DX009 (ip), vehicle: distilled water + Tween-80 103 % of control | dose: 20.0 mg/kg/injection, schedule: Q01DX009 (ip), vehicle: distilled water + Tween-80 103 % of control

CC1=Nc2ccc(C(F)(F)F)cc2NC(=O)C1
inactive: [1] 100 % of control | [2] 99 % of control and 97 % of control | [3] 100 % of control and 96 % of control

NC(=Nc1ccccc1)NNC=O
inactive: dose: 50.0 mg/kg/injection, schedule: Q01DX005 (ip), vehicle: saline 102 % of control | dose: 100.0 mg/kg/injection, schedule: Q01DX005 (ip), vehicle: saline 104 % of control | dose: 200.0 mg/kg/injection, schedule: Q01DX005 (ip), vehicle: saline 100 % of control

C[Si](Cl)(CCl)CCl
inactive: [4] 118 % of control | [5] 116 % of control | [6] 118 % of control

CC12c3ccccc3CCN1C(c1ccccc1)=NN2c1ccccc1 (stereo unspecified)
inactive: dose: 100.0 mg/kg/injection, schedule: Q01DX001 (ip), vehicle: saline with Tween-80 105 % of control | dose: 200.0 mg/kg/injection, schedule: Q01DX001 (ip), vehicle: saline with Tween-80 103 % of control | dose: 400.0 mg/kg/injection, schedule: Q01DX001 (ip), vehicle: saline with Tween-80 102 % of control

Cc1nc(N)c2ncn(C3OC(CO)C(O)C3O)c2n1 (stereo unspecified)
inactive: dose: 6.25 mg/kg/injection, schedule: Q01DX009 (ip), vehicle: saline 100 % of control | dose: 12.5 mg/kg/injection, schedule: Q01DX009 (ip), vehicle: saline 106 % of control | dose: 25.0 mg/kg/injection, schedule: Q01DX009 (ip), vehicle: saline 109 % of control | [7] 112 % of control

COc1ccc(/C=C2\C=CC(=O)O2)cc1
inactive: dose: 100.0 mg/kg/injection, schedule: Q01DX002 (ip), vehicle: Klucel (hydroxypropylcellulose) (HPC) 104 % of control | dose: 200.0 mg/kg/injection, schedule: Q01DX002 (ip), vehicle: Klucel (hydroxypropylcellulose) (HPC) 103 % of control | dose: 400.0 mg/kg/injection, schedule: Q01DX002 (ip), vehicle: Klucel (hydroxypropylcellulose) (HPC) 105 % of control

COC(=O)c1ccc2c(c1)C(NC(C)=O)CCc1cc(OC)c(OC)c(OC)c1-2 (stereo unspecified)
inactive: dose: 0.25 mg/kg/injection, schedule: Q01DX005 (ip), vehicle: saline 106 % of control | dose: 0.5 mg/kg/injection, schedule: Q01DX005 (ip), vehicle: saline 99 % of control | dose: 1.0 mg/kg/injection, schedule: Q01DX005 (ip), vehicle: saline 101 % of control | dose: 2.0 mg/kg/injection, schedule: Q01DX005 (ip), vehicle: saline 106 % of control | dose: 4.0 mg/kg/injection, schedule: Q01DX005 (ip), vehicle: saline 114 % of control

COc1ccc(C2CC(=O)NC(N)=N2)c(O)c1 (stereo unspecified)
inactive: [7] 103 % of control | [8] 104 % of control | [9] 103 % of control

O=C1CCSC(=S)N1c1ccccc1C(F)(F)F
inactive: dose: 50.0 mg/kg/injection, schedule: Q01DX009 (ip), vehicle: suspension in saline 90 % of control | dose: 100.0 mg/kg/injection, schedule: Q01DX009 (ip), vehicle: suspension in saline 92 % of control | dose: 200.0 mg/kg/injection, schedule: Q01DX009 (ip), vehicle: suspension in saline 99 % of control

COc1cccc2c1C(=O)c1c(O)c(C(CC(=O)O)OC3CC(N)C(O)C(C)O3)c(CO)c(O)c1C2=O (stereo unspecified)
inactive: dose: 100.0 mg/kg/injection, schedule: Q04DX003 (ip), vehicle: water 106 % of control | dose: 200.0 mg/kg/injection, schedule: Q04DX003 (ip), vehicle: water 110 % of control

c1ccc2c(c1)CCCN2c1nc(N2CCCC2)nc(N2CCOCC2)n1
inactive: [7] 99 % of control | [8] 89 % of control | [9] 92 % of control

Cc1cc(Cl)ccc1NC(=O)COc1ccc(Cl)cc1Cl
inactive: [10] 100 % of control | [11] 95 % of control | [12] 90 % of control

CC(CCC(=O)O)C1CCC2C3CCC4CC(OC=O)CCC4(C)C3CC(OC=O)C12C (stereo unspecified)
inactive: [4] 95 % of control | [10] 105 % of control | [5] 90 % of control | [11] 100 % of control | [6] 90 % of control | [12] 100 % of control

Cc1ccc2c(c1)C(C(F)(F)F)(C(F)(F)F)OC(C(F)(F)F)(C(F)(F)F)N2
inactive: [10] 104 % of control | [11] 100 % of control | [12] 108 % of control

CN1C(=O)CN2CCc3ccccc3C2c2cc(Cl)ccc21 (stereo unspecified)
inactive: dose: 50.0 mg/kg/injection, schedule: Q01DX005 (ip), vehicle: saline with Tween-80 92 % of control | dose: 100.0 mg/kg/injection, schedule: Q01DX005 (ip), vehicle: saline with Tween-80 98 % of control | dose: 200.0 mg/kg/injection, schedule: Q01DX005 (ip), vehicle: saline with Tween-80 98 % of control

CC(=O)Nc1cc(F)c2c(c1F)Cc1cc(F)ccc1-2
inactive: [5] 100 % of control | [11] 100 % of control | [6] 90 % of control | [12] 100 % of control | dose: 400.0 mg/kg/injection, schedule: Q04DX003 (ip), vehicle: saline with Tween-80 104 % of control

CC(C)=CCC(OC(=O)CC(C)C)C1=CC(=O)c2c(O)ccc(O)c2C1=O (stereo unspecified)
inactive: dose: 6.25 mg/kg/injection, schedule: Q01DX005 (ip), vehicle: saline with Tween-80 94 % of control | dose: 12.5 mg/kg/injection, schedule: Q01DX005 (ip), vehicle: saline with Tween-80 103 % of control | dose: 25.0 mg/kg/injection, schedule: Q01DX005 (ip), vehicle: saline with Tween-80 99 % of control

COC(=O)C1C(C)C2CCCCC2CC1(C)O (stereo unspecified)
inactive: dose: 100.0 mg/kg/injection, schedule: Q04DX003 (ip), vehicle: Klucel (hydroxypropylcellulose) (HPC) 103 % of control | dose: 200.0 mg/kg/injection, schedule: Q04DX003 (ip), vehicle: Klucel (hydroxypropylcellulose) (HPC) 112 % of control | dose: 400.0 mg/kg/injection, schedule: Q04DX003 (ip), vehicle: Klucel (hydroxypropylcellulose) (HPC) 100 % of control

CCCCCCC(=O)CCCCCCCCCCCCC(=O)OC
inactive: dose: 12.5 mg/kg/injection, schedule: Q04DX003 (ip), vehicle: saline with Tween-80 100 % of control | dose: 25.0 mg/kg/injection, schedule: Q04DX003 (ip), vehicle: saline with Tween-80 100 % of control | [10] 100 % of control

O=C(O)c1cc2ccccc2[nH]c1=O
inactive: [1] 97 % of control | [2] 97 % of control | [3] 104 % of control
